# Read-outs that look alike come from different tables or passages of the source.
# How the values were obtained:
# MYB mRNA = experiment: RT-qPCR splicing assay, MYB canonical junction (CJ) and alternative junction (AJ) mRNA; type: cell-based, human; details: Homo sapiens; for AC50: increase in MYB alternative junction (AJ) mRNA, read-out: MYB AJ AC50
# In short: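 A673 or K562 cells were treated for 24 h at 37 °C with an 11-point 3-fold compound dilution series (top final concentration 10 uM, DMSO ≤0.25%). After lysis, one-step TaqMan RT-qPCR quantified junction transcripts, normalized to PPIA for A673 or to GAPDH/GUSB for K562.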
# MYB = experiment: HiBiT protein abundance assay, MYB HiBiT K562 cell line; type: cell-based, human; details: 24 hours, top dose 10 μM
# In short: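 Endogenous targets in K562 knock-in lines carried a HiBiT tag and were treated for 24 h at 37 °C with 10-point 3-fold dilutions (top 10 μM final, DMSO ≤0.25%). Abundance was read as lytic Nano-Glo HiBiT luminescence. IC50 came from a four-parameter logistic fit of normalized response.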
# [1] = tested on: K562 (human chronic myelogenous leukemia) cells; experiment: Cell Titer Glo 2.0 cell viability assay; type: cell-based; details: K562 cells, 72 hours, Cell Titer Glo 2.0, read-out: K562 GI50
# [2] = canonical junction qPCR panel, Table 5, read-out: MYB (decrease in CJ mRNA levels, IC50)
# [3] = decrease in MYB canonical junction (CJ) mRNA, RT-qPCR, read-out: MYB CJ IC50
# [4] = HiBiT lytic detection, modified K562 cells, read-out: Effect on protein abundance, MYB (IC50)
Compound,IC50 (MYB mRNA; [2]) [nM],IC50 (MYB mRNA; [3]) [nM],AC50 (MYB mRNA; RT-qPCR) [nM],IC50 (MYB; [4]) [nM],GI50 [1] [nM],"GI50 ([1]; Homo sapiens, K562, 72 h) [nM]","IC50 (MYB; HiBiT K562 cell line, read-out: Effect on protein abundance, MYB (IC50 category)) [nM]"
Cc1c(O)c(-c2ncc3c(=O)n([C@@H]4CC[C@H](N)C4)ccc3n2)cc2cn(C)nc12 [Compound 1477],< 100,< 100,< 100,100 to 1000,< 100,,
CNC12CCC(n3ccc4nc(-c5cc6cn(C)nc6c(C)c5O)ncc4c3=O)(CC1)C2 [Compound 1479],< 100,100 to 1000,< 100,< 100,,< 100,
Cc1c(O)c(-c2ncc3c(=O)n([C@H]4CCNC5(CC5)C4)ccc3n2)cc2cn(C)nc12 [Compound 1512],< 100,100 to 1000,< 100,< 100,,100 to 1000,
"Cc1c(O)c(-c2nc(C)c3c(=O)n([C@@H]4CCNC5(CC5)C4)ccc3n2)cc2cn(C)nc12 [Compound 1515, (R)-2-(6-hydroxy-2,7-dimethyl-2H-indazol-5-yl)-4-methyl-6-(4-azaspiro[2.5]octan-7-yl)pyrido[4,3-d]pyrimidin-5(6H)-one]",< 100,100 to 1000,< 100,< 100,,100 to 1000,
"COc1cc(-c2ccc3c(=O)n([C@H]4CCN[C@@H](C)C4)ccc3n2)nn2cc(C)nc12 [Compound 1519, 2-(8-methoxy-2-methyl-imidazo[1,2-b]pyridazin-6-yl)-6-[(2S,4S)-2-methyl-4-piperidyl]-1,6-naphthyridin-5-one]",100 to 1000,100 to 1000,100 to 1000,< 100,,100 to 1000,
Cc1cn2nc(-c3ccc4c(=O)n([C@@H]5CCN(C)[C@H](C)C5)ncc4n3)cc(C)c2n1 [Compound 1527],100 to 1000,100 to 1000,100 to 1000,100 to 1000,,100 to 1000,
"Cc1cn2nc(-c3ccc4c(=O)n([C@H]5CCN(C)[C@@H](C)C5)ncc4n3)cc(C)c2n1 [Compound 1528, 2-(2,8-dimethylimidazo[1,2-b]pyridazin-6-yl)-6-(1,2-dimethyl-4-piperidyl)pyrido[2,3-d]pyridazin-5-one]",100 to 1000,100 to 1000,100 to 1000,100 to 1000,,100 to 1000,
CCN1CC[C@@H](n2ncc3nc(-c4cc(C)c5nc(C)cn5n4)ccc3c2=O)CC12CC2 [Compound 1530],< 100,< 100,< 100,< 100,,100 to 1000,
CCN1CC[C@H](n2ncc3nc(-c4cc(C)c5nc(C)cn5n4)ccc3c2=O)CC12CC2 [Compound 1531],100 to 1000,100 to 1000,100 to 1000,100 to 1000,,100 to 1000,
Cc1cn2nc(-c3ccc4c(=O)n([C@H]5CCN(C)C6(CC6)C5)ncc4n3)cc(C)c2n1 [Compound 1533],100 to 1000,100 to 1000,100 to 1000,100 to 1000,,100 to 1000,
Cc1cn2nc(-c3ccc4c(=O)n([C@@H]5CCN(C)C6(CC6)C5)ncc4n3)cc(C)c2n1 [Compound 1534],100 to 1000,< 100,100 to 1000,100 to 1000,,100 to 1000,
"Cc1cn2nc(-c3ccc4c(=O)n(C5CCN(CCO)C6(CC6)C5)ncc4n3)cc(C)c2n1 (stereo not shown) [Compound 1541, 2-(2,8-dimethylimidazo[1,2-b]pyridazin-6-yl)-6-[4-(2-hydroxyethyl)-4-azaspiro[2.5]octan-7-yl]pyrido-[2,3-d]pyridazin-5-one]",100 to 1000,100 to 1000,100 to 1000,,,1000 to 10000,100 to 1000
"Cc1cn2nc(-c3ccc4c(=O)n(C5CCN(CCF)C6(CC6)C5)ncc4n3)cc(C)c2n1 (stereo not shown) [Compound 1542, 2-(2,8-dimethylimidazo[1,2-b]pyridazin-6-yl)-6-[4-(2-fluoroethyl)-4-azaspiro[2.5]octan-7-1]pyrido[2,3-d]pyridazin-5-one]",1000 to 10000,1000 to 10000,1000 to 10000,1000 to 10000,,1000 to 10000,
"Cc1cn2nc(-c3ccc4c(=O)n(C5CCN(CC6CC6)C6(CC6)C5)ncc4n3)cc(C)c2n1 (stereo not shown) [Compound 1543, 6-[4-(cyclopropylmethyl)-4-azaspiro[2.5]octan-7-yl]-2-(2,8-dimethylimidazo[1,2-b]pyridazin-6-yl)pyrido[2,3-d]pyridazin-5-one]",100 to 1000,100 to 1000,100 to 1000,100 to 1000,,100 to 1000,
"Cc1cn2nc(-c3ccc4c(=O)n([C@@H]5CCNC6(CCC6)C5)ncc4n3)cc(C)c2n1 [Compound 1545, 6-[(8R)-5-azaspiro[3.5]nonan-8-yl]-2-(2,8-dimethylimidazo[1,2-b]pyridazin-6-yl)pyrido[2,3-d]pyridazin-5-one]",100 to 1000,100 to 1000,100 to 1000,100 to 1000,,100 to 1000,
Cc1cn2nc(-c3ccc4c(=O)n(C5CCNC6(CCC6)C5)ncc4n3)cc(C)c2n1 (stereo not shown) [Compound 1553],1000 to 10000,1000 to 10000,1000 to 10000,1000 to 10000,,1000 to 10000,
Cn1cc2ccc(-n3cnc4ccc(NC5CCNCC5)cc4c3=O)cc2n1 [Compound 2164],> 10000,> 10000,> 10000,> 10000,,> 10000,
Cc1cc(-c2ccc3ncn(C4CCNCC4)c(=O)c3c2)cc2cn(C)nc12 [Compound 2169],> 10000,> 10000,> 10000,> 10000,,> 10000,
Cc1cc(-c2ccc3ncn(C4CCN(C)CC4)c(=O)c3c2)cc2cn(C)nc12 [Compound 2170],> 10000,> 10000,> 10000,> 10000,,> 10000,
CN1CCC(Nc2ccc3ncn(-c4ccc5nn(C)cc5c4)c(=O)c3c2)CC1 [Compound 2171],> 10000,> 10000,> 10000,> 10000,,> 10000,
Cc1cn2cc(-n3cnc4ccc(N5CCNCC5)cc4c3=O)cc(F)c2n1 [Compound 2195],> 10000,> 10000,> 10000,> 10000,,> 10000,
Cn1cc2cc(-n3cnc4ccc(N5CCNCC5)cc4c3=O)cc(F)c2n1 [Compound 2196],> 10000,> 10000,> 10000,> 10000,,> 10000,
Cc1cn2cc(-n3cnc4ccc(N5CCN(C)CC5)cc4c3=O)cc(F)c2n1 [Compound 2197],1000 to 10000,1000 to 10000,1000 to 10000,1000 to 10000,,1000 to 10000,
CN(c1ccc2ncn(-c3cc(F)c4nn(C)cc4c3)c(=O)c2c1)C1CCNCC1 [Compound 2198],> 10000,> 10000,> 10000,> 10000,,> 10000,
CN1CCC(N(C)c2ccc3ncn(-c4cc(F)c5nn(C)cc5c4)c(=O)c3c2)CC1 [Compound 2199],> 10000,> 10000,> 10000,> 10000,,> 10000,
Cc1cn2cc(-n3cnc4ccc(N(C)C5CCNCC5)cc4c3=O)cc(F)c2n1 [Compound 2200],> 10000,> 10000,> 10000,> 10000,,> 10000,

# Reference: patent US20250332173A1, “COMPOUNDS AND METHODS FOR MODULATING NUCLEIC ACID SPLICING” (REMIX THERAPEUTICS INC., priority 2021, published 2025)
